Test results from patent publication US20080300182A1, “Eye disease treating agent and method for treating eye disease” (NIDEK CO., LTD., priority 2005, published 2008).
Ends that are not written are not given here.

How the values were obtained:
[1] = test system: Muller cell of the retina; test: IL-6 expression in retinal tissue after administration into the vitreous body, anti-IL-6 immunostaining (Test Example 3); type: in vivo, rat; conditions: 10^−11 mol PACAP
Description: The PACAP 38 was dissolved in sterile physiological saline to a concentration of 3.3 nmol/ml. This was stored under ice-cooling until just before the administration.
Male Wister/ST rats of 8 weeks of age were used in this test. After anesthesia by intraperitoneal administration of pentobarbital sodium, 3 μl per one eye of the administration liquid was injected from about 1 mm behind the limbus using a Hamilton glass syringe equipped with a 30G needle, that is, the liquid was injected into the vitreous body in such a manner that 10^−11 mol of PACAP reached the retina. After 1, 2, 3 and 7 days of the PACAP administration, each animal was sacrificed by bleeding through the cutting of abdominal aorta under diethyl ether inhalation anesthesia, and then both eyeballs were enucleated, and fixed with ice-cold 4% paraformaldehyde-0.1 M phosphate buffer (pH 7.4). The fixed eyeballs were subjected to sucrose replacement and then freeze-embedded to prepare frozen sections of 10 μm in thickness. By applying fluorescence immunostaining to each of the frozen sections using an anti-IL-6 antibody, expression of IL-6 in the retina was observed.

retinal ganglion cell [2] = test: Kainic acid-induced retinal ganglion cell death model, retinal tissue pNF-H content by sandwich ELISA (Test Example 5); type: in vivo, rat; conditions: 7 days after exposure
From the text: In order to clarify whether or not the IL-6 which is expressed in a delayed manner in Muller cell (Test Example 3) is concerned in the retinal ganglion cell death inhibitory effect of PACAP confirmed in Test Example 4, this was verified using the same animal model and using neurofilament (phosphorylated neurofilament-H; pNF-H) protein in the retinal tissue as the index. It is known that pNF-H is a protein which is specifically expressed in the retinal ganglion cell, and that the content of this protein in the retinal tissue can be used as a quantitative index for estimating degree of the retinal ganglion cell death.
A group in which 10 μmol of PACAP 38 is injected into the vitreous body 2 days before the kainic acid exposure in the same manner as in Test Example 4 (pretreatment group) and another group in which the same amount of PACAP is injected simultaneously with kainic acid (simultaneous treatment group) were set up as the test groups. The retinal tissue was collected 7 days after the kainic acid exposure, and the pNF-H protein was extracted. Amount of the pNF-H protein in retinal tissue was measured by the sandwich ELISA.

retinal ganglion cell [3] = test: Kainic acid-induced retinal ganglion cell death model, number of cells remaining in the ganglion cell layer (Test Example 4); type: in vivo, rat
Description: Retinal nerve protecting effect was examined using a kainic acid-induced retinal ganglion cell death animal model.
Male Wister/ST rats of 8 weeks of age were used in the test. After anesthesia by intraperitoneal administration of pentobarbital sodium, PACAP 38 (10 μmol) dissolved in sterile physiological saline or the administration solvent (physiological saline) as the negative control was injected once into the vitreous body in the same manner as in Test Example 3. Two days after the PACAP administration, kainic acid (5 nmol) was injected once into the vitreous body of each animal under anesthesia by a mixed liquid of ketamine and seractal. 7 days after the kainic acid administration, all animals were sacrificed by bleeding through the cutting of abdominal aorta under diethyl ether inhalation anesthesia and their eyeballs were enucleated. The enucleated eyeballs were fixed by soaking in a 1% formaldehyde-1.25% glutaraldehyde mixed fixing liquid. The fixed eyeballs were embedded in paraffin, and then retinal tissue sections of 4 μm in thickness traversing the optic disc were prepared and subjected to hematoxylin eosin staining. Effect of PACAP was judged by counting the number of cells remaining in the ganglion cell layer within a region of from 0.5 to 1.7 mm from the optic disc of each tissue specimen. […]

cultured rat Muller cell = test: IL-6 production acceleration effect in cultured Muller cell (Test Example 1; IL-6 measured by B9 cell bioassay); type: cell-based; conditions: 24 hours after addition of PACAP 38 (10^−12 M, 10^−9 M to 10^−6 M), vs no addition, p<0.01
Description: Wister/ST rats of 14 days of age (20 animals) were sacrificed by bleeding through the cutting of abdominal aorta under diethyl ether anesthesia. The 40 eyeballs were immediately enucleated and soaked in Dulbecco's modified minimum essential medium (DMEM) containing 25 mM HEPES and antibiotics (penicillin 100 U/ml, streptomycin 100 μg/ml, amphotericin B 0.25 μg/ml), one night at room temperature under shade. Next, the eyeballs were transferred into DMEM containing 0.1% trypsin and 70 U/ml collagenase and incubated at 37° C. for 60 minutes. Thereafter, retinas were removed from the eyeballs and transferred into DMEM supplemented with antibiotics and 10% FBS (medium for culturing use) (8 retinas/10 ml DMEM). The retinas were dispersed and suspended until they became small aggregates through the pipetting using a Pasteur pipette having thinned tip. This cell suspension was seeded onto a polystyrene dish (Asahi Techno Glass) and cultured by keeping at 37° C. under an environment of 5% CO2/95% air. […]
The IL-6 concentration in the thus recovered Muller cell culture supernatant was measured using B9 cell which is a hybridoma sub-clone of an IL-6-dependent mouse. […] Regarding the bioassay of IL-6, growth of B9 cell was determined as the fluorescence intensity by Alamar Blue.

Substance: pituitary adenylate cyclase-activating polypeptide (HSDGIFTDSYSRYRKQMAVKKYLAAVLGKRYKQRVKNK; ends and bridges not checked; listed as Ovis sp.) [PACAP 38]
- Expression of IL-6 in the retina ([1]; 1 day after intravitreal administration): not found
- IL-6-positive cell in the retina ([1]; 2 days after intravitreal administration): frequently observed
- IL-6-positive cell in the retina ([1]; 3 days after intravitreal administration): frequently observed
- Expression of IL-6 in the retina ([1]; 7 days after intravitreal administration): hardly observed
- reduction of the amount of pNF-H protein in the retinal tissue induced by kainic acid (retinal ganglion cell [2]; pretreatment group: 10 μmol PACAP 38 intravitreal 2 days before kainic acid, vs saline, p<0.01): inhibited with a significance
- effect to inhibit reduction of the amount of pNF-H (retinal ganglion cell [2]; simultaneous treatment group: 10 μmol PACAP 38 injected simultaneously with kainic acid): completely absent
- Average value of the number of cells remaining in the ganglion cell layer (retinal ganglion cell [3]; PACAP 38 (10 μmol) intravitreal 2 days before kainic acid (5 nmol), 7 days after kainic acid, 0.5 to 1.7 mm from optic disc): 34.8 cells/mm
- inhibition of the reduction of the number of cells caused by kainic acid (retinal ganglion cell [3]; PACAP 38 (10 μmol) intravitreal 2 days before kainic acid, vs physiological saline control, p<0.05): found with a significance
- IL-6 concentration in the culture liquid (cultured rat Muller cell): significantly increased
